Measurements from patent US20230295109A1, “PYRIDINONE COMPOUNDS FOR THE TREATMENT OF AUTOIMMUNE DISEASE” (F. Hoffmann-La Roche AG, priority 2020, published 2023).

Assay: Parallel Artificial Membrane Permeability Assay (PAMPA)
Type: in vitro ADME
Protocol: PAMPA (Parallel Artificial Membrane Permeability Assay) is a first-line permeability screen for drug candidates. This assay mimics the transcellular absorption conditions using an artificial phospholipid membrane and generates a permeability value that can be used for compound ranking and optimization as well as input parameters for in silico models to predict intestinal absorption.
Permeation experiments are carried out in hydrophobic PVDF 96-well microtiter filter plates (MultiScreen Filter Plate, Millipore, #MAIPN4550). Each well is coated with PVDF membrane, which is prepared with 5 µL Dodecane (Sigma, D221104) that contains 1% lecithin (Sigma, P3556-1G).
The typical PAMPA experimental protocol is as follows: The donor plate is placed on a Teflon acceptor plate that has been pre-filled with 150 µL of 100 mM PBS buffer (2.6 g KH2PO4 and 18.5 g K2HPO4.3H2O are dissolved in about 1000 mL of ultra-pure water and mixed thoroughly. The pH is adjusted to 7.40 ± 0.05, using either 1 M sodium hydroxide or 1 M hydrochloric acid.) containing 5% DMSO. The filter on the bottom of each acceptor well is filled with 300 µL of 100 mM PBS buffer (2.6 g KH2PO4 and 18.5 g K2HPO4.3H2O are dissolved in about 1000 mL of ultra-pure water, mixed thoroughly. The pH was adjusted to 7.40 ± 0.05, using either 1 M sodium hydroxide or 1 M hydrochloric acid.). The resulting sandwich is incubated at room temperature under constant shaking (300 rpm) for 4 hours. The sandwich is then disassembled. Before incubation, spike 20 µL dosing solution and mix with 250 µL PBS and 130 µL quench solution (acetonitrile) as T0 sample. After incubation, collect 270 µL solutions from acceptor chamber, followed by the addition of 130 µL acetonitrile. Collect 20 µL solution from donor chamber and add 250 µL PBS and 130 µL acetonitrile. The concentration of compound in all samples are determined by LC-MS/MS and the equations for determining the permeability (Pe, 10^-6 cm/s ) are as follows.
VD is the volume of the donor well; VR is the volume of the acceptor well; Area is the active surface area of membrane; Time is the incubation time (14,400 s in this assay); CR and CD are the concentrations of compound in acceptor and donor solutions, respectively, at the completion of the assay; C0 is the concentration of compound in donor solution before incubation.
The main readout of the PAMPA assay is the permeability value Pe expressed in 10^-6 cm/s. Secondary readouts determined are the amounts of compound in the donor and acceptor compartments as well as compound retention in the membrane. Depending on the permeation rate and the membrane retention, compounds are classified as “low” (Pe < 0.2 and membrane retention <20%) or “medium & high” (Pe >= 0.2; or Pe < 0.2 and membrane retention >= 20%). Each sample is measured in triplicate; the standard deviation is determined for the permeation constant Pe.

Membrane Retention (PAMPA, pH 7.40, 4 hours): 37.320%
Papp at 4 h (PAMPA, pH 7.4, pH 7.40, room temperature, 4 hours, read-out: PAMPA Pe): 0.87 ×10⁻⁶ cm/s
SMILES: CCc1nc(N2CCN3CCN(c4cnc(N5CC6(CNCCO6)C5)nc4)CC3C2)ccc1-c1cc(C)c(=O)n(C)c1 (stereo not drawn) [Example 19, 5-[2-ethyl-6-[2-[2-(5-oxa-2,8-diazaspiro[3.5]nonan-2-yl)pyrimidin-5-yl]-3,4,6,7,9,9a-hexahydro-1H-pyrazino[1,2-a]pyrazin-8-yl]-3-pyridyl]-1,3-dimethyl-pyridin-2-one]
PAMPA category (class from Pe and membrane retention): medium & high (“medium & high” (Pe >= 0.2; or Pe < 0.2 and membrane retention >= 20%))
